Measured values taken from the supplement of paper PMC13380429.

Assays:
Conditions in all cases: 72 h
Calu-3 [1] = assay: drug sensitivity score (DSS) for viability; higher = more toxic; extreme values may be limits of the assay
HepG2 [2] = assay: as above
Vero E6 [3] = assay: as above
Caco-2 [4] = assay: as above
Calu-3 [5] = assay: cell viability relative to DMSO; higher = less toxic
HepG2 [6] = assay: as above
Vero E6 [7] = assay: as above
Caco-2 [8] = assay: as above
Calu-3 [9] = assay: relative viability EC50 (midpoint between 100% and the lowest measured viability); higher = less toxic
HepG2 [10] = assay: as above
Vero E6 [11] = assay: as above
Caco-2 [12] = assay: as above
U2OS [13] = assay: drug sensitivity score (DSS) for viability; higher = more toxic; extreme values may be limits of the assay
U2OS [14] = assay: cell viability relative to DMSO; higher = less toxic
U2OS [15] = assay: relative viability EC50 (midpoint between 100% and the lowest measured viability); higher = less toxic

Compound	drug sensitivity score (Calu-3 [1])	drug sensitivity score (HepG2 [2])	drug sensitivity score (Vero E6 [3])	drug sensitivity score (Caco-2 [4])	cell viability (Calu-3 [5]; 1 nM)	cell viability (Calu-3 [5]; 10 nM)	cell viability (Calu-3 [5]; 100 nM)	cell viability (Calu-3 [5]; 1000 nM)	cell viability (Calu-3 [5]; 10000 nM)	cell viability (HepG2 [6]; 1 nM)	cell viability (HepG2 [6]; 10 nM)	cell viability (HepG2 [6]; 100 nM)	cell viability (HepG2 [6]; 1000 nM)	cell viability (HepG2 [6]; 10000 nM)	cell viability (Vero E6 [7]; 1 nM)	cell viability (Vero E6 [7]; 10 nM)	cell viability (Vero E6 [7]; 100 nM)	cell viability (Vero E6 [7]; 1000 nM)	cell viability (Vero E6 [7]; 10000 nM)	cell viability (Caco-2 [8]; 1 nM)	cell viability (Caco-2 [8]; 10 nM)	cell viability (Caco-2 [8]; 100 nM)	cell viability (Caco-2 [8]; 1000 nM)	cell viability (Caco-2 [8]; 10000 nM)	relative viability EC50 (Calu-3 [9])	relative viability EC50 (HepG2 [10])	relative viability EC50 (Vero E6 [11])	relative viability EC50 (Caco-2 [12])	drug sensitivity score (U2OS [13])	cell viability (U2OS [14]; 1 nM)	cell viability (U2OS [14]; 10 nM)	cell viability (U2OS [14]; 100 nM)	cell viability (U2OS [14]; 1000 nM)	cell viability (U2OS [14]; 10000 nM)	relative viability EC50 (U2OS [15])
COc1cccc(OC)c1OCCNC[C@H]1COc2ccccc2O1 [WB-4101]	1.4	0	0	0.1	107%	102%	104%	90.9%	80.8%	106%	109%	107%	103%	93.2%	104%	100%	99.1%	98.2%	98.5%	105%	104%	106%	106%	85.3%	> 10 µM	> 10 µM	> 10 µM	> 10 µM	–	–	–	–	–	–	–
CC(C)(OCc1nn(Cc2ccccc2)c2ccccc12)C(=O)O [bindarit]	0	0	0	0	99%	95.5%	106%	95.1%	104%	97.2%	96.4%	100%	99.2%	100%	102%	105%	100%	107%	91.4%	104%	101%	108%	102%	96.8%	> 10 µM	> 10 µM	> 10 µM	> 10 µM	–	–	–	–	–	–	–
CC(C)(C)c1ccc(CN2CCN(C(c3ccccc3)c3ccc(Cl)cc3)CC2)cc1 (configuration not stated) [buclizine]	0	2.2	0	0.2	95.1%	98.3%	94.6%	87.1%	92.1%	95.7%	106%	99.6%	91.3%	73.5%	103%	102%	101%	98.2%	95.9%	108%	98.3%	100%	98.3%	87.5%	> 10 µM	–	> 10 µM	> 10 µM	0	96.7%	97.6%	96.8%	98.9%	90.8%	> 10 µM
O=C(O)c1cc(-c2ccc(F)cc2F)ccc1O [diflunisal]	0	–	0	0	103%	109%	109%	99.6%	95.7%	–	–	–	–	–	103%	100%	92.9%	98.4%	97.1%	93.3%	105%	93.9%	105%	104%	> 10 µM	–	> 10 µM	> 10 µM	–	–	–	–	–	–	–
COc1ccc2nc(NC(=O)Nc3ccccc3)sc2c1 [frentizole]	0	3.7	0	1.2	110%	99.4%	93.7%	107%	91.1%	101%	105%	93.8%	89.7%	56.8%	100%	105%	98.6%	97.1%	97.5%	103%	98.3%	88%	88.2%	87.9%	> 10 µM	–	> 10 µM	> 10 µM	0	95.7%	97.2%	97%	95%	95.3%	> 10 µM
Cc1c(I)c(=O)n(-c2ccccc2)n1C [iodoantipyrine]	0	0	0	0	105%	106%	96.1%	93.7%	93.2%	94.7%	102%	95%	102%	91.2%	98.8%	93.3%	96.9%	95.3%	101%	107%	104%	94.8%	99.4%	98.7%	> 10 µM	> 10 µM	> 10 µM	> 10 µM	–	–	–	–	–	–	–
COc1ccc2c(O[C@@H]3C[C@H]4C(=O)N[C@]5(C(=O)NS(=O)(=O)C6CC6)C[C@H]5/C=C\CCCCN(C)C(=O)[C@@H]4C3)cc(-c3nc(C(C)C)cs3)nc2c1C [simeprevir]	0	0.4	0	1.1	94.9%	99.7%	88.7%	100%	102%	102%	99.4%	92.7%	101%	81.5%	102%	105%	95.4%	101%	102%	94.8%	100%	112%	102%	70.8%	> 10 µM	> 10 µM	> 10 µM	–	0	104%	98.8%	99.9%	99.4%	105%	> 10 µM
